In patent publication US9040565B2, “1H-benzimidazole-5-carboxamides as anti-inflammatory agents” (Orexo AB, priority 2008, dated 2015):

Biological target: T1, recombinant human mPGES-1 (Homo sapiens, UniProt O14684)
T1 construct: made in house; host or cells: Rosetta E. coli (microsomal/membrane fraction)
T1 sequence (O14684 1-152): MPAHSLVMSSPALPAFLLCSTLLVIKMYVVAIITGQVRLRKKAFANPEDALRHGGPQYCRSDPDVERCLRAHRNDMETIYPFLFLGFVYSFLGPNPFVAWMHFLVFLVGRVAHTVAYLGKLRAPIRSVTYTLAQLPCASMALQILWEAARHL
Assay: mPGES-1 inhibition, HTRF detection of PGE2 (Biological Test)
Type: biochemical
Description: Microsomes from Rosetta E. coli bacteria expressing recombinant human mPGES-1 is dissolved in 0.1 M KPi pH 7.4 buffer containing 2.5 mM GSH. 50 μl of the enzyme is subsequently dispensed in a 384-well plate. 0.5 μl of the inhibitor dissolved in DMSO at is thereafter added to each well and incubated for 25 minutes at room temperature.
Subsequently, 2 μl of PGH2 dissolved in an appropriate solvent is added to each well and after one minute the acidified stop solution containing FeCl2 is added. 4 μl of the total volume is transferred to a separate plate and diluted 750-fold in two separate steps before HTRF detection of PGE2.
The HTRf detection is performed by the use of a commercially available kit from CisBio essentially according to the manufacturer's protocol. Briefly, 10 μl of the diluted sample is transferred to a white 384-well plate. 5 μl of d2 and 5 μl Eu3+-Cryptate labeled anti-PGE2 is added to each well containing samples by the use of a Multidrop. The plate is covered with a plastic self-adhesive film, centrifuged at 1200 rpm for 1 minute and subsequently stored at +4° C. over night.
After over night incubation the fluorescence is measured by the use of an appropriate microplate reader. The fluorescence of europium cryptate, and d2 are measured using the following excitation and emission wavelength, europium cryptate: λmax^ex=307 nm, λmax^em=620 nm and d2: λmax^ex=620 nm, λmax^em=665 nm), respectively. The extent of the specific FRET is measured as a ratio of the emission intensity at 665 nm vs. that at 620 nm. A standard curve using synthetic PGE2 is used to quantify the amount of PGE2 in unknown samples.

SMILES | inhibition at 10 µM
O=C(Nc1ccc(Br)cc1)c1ccc2nc(Nc3c(Cl)cncc3Cl)[nH]c2c1 [Example 388, N-(4-Bromophenyl)-2-(3,5-dichloropyridin-4-ylamino)-1H-benzimidazole-5-carboxamide] | 100%
CC1(C)CCC(NC(=O)c2ccc3nc(Nc4c(Cl)cncc4Cl)[nH]c3c2)CC1 [Example 409, 2-(3,5-Dichloropyridin-4-ylamino)-N-(4,4-dimethylcyclohexyl)-1H-benzimidazole-6-carboxamide] | 100%
Cn1c(Nc2c(Cl)cncc2Cl)nc2cc(C(=O)Nc3ccc(Br)cc3)ccc21 [Example 410, N-(4-Bromophenyl)-2-(3,5-dichloropyridin-4-ylamino)-1-methyl-1H-benzimidazole-5-carboxamide] | 100%
O=C(Nc1cccc(Cl)c1)c1ccc2nc(Nc3c(Cl)cncc3Cl)[nH]c2c1 [Example 434, N-(3-Chlorophenyl)-2-(3,5-dichloropyridin-4-ylamino)-1H-benzimidazole-5-carboxamide] | 98%
Cn1c(Nc2c(Cl)cncc2Cl)nc2cc(C(=O)NC3CCC(C)(C)CC3)ccc21 [Example 435, 2-(3,5-dichloropyridin-4-ylamino)-N-(4,4-dimethylcyclohexyl)-1-methyl-1H-benzimidazole-5-carboxamide] | 100%
CC1(C)CCC(NC(=O)c2ccc3[nH]c(Nc4c(Cl)cncc4Cl)nc3c2)CC1 [Example 446, 2-(3,5-Dichloropyridin-4-ylamino)-N-(4,4-dimethylcyclohexyl)-1H-benzimidazole-5-carboxamide] | 100%
Cn1c(Nc2c(Cl)cncc2Cl)nc2cc(C(=O)NCc3ccccc3C(F)(F)F)ccc21 [Example 467, 2-(3,5-Dichloropyridin-4-ylamino)-1-methyl-N-(2-trifluoromethyl-benzyl)-1H-benzimidazole-5-carboxamide] | 96%
O=C(NCc1ccccc1C(F)(F)F)c1ccc2[nH]c(Nc3c(Cl)cncc3Cl)nc2c1 [Example 493, 2-(3,5-Dichloropyridin-4-ylamino)-N-(2-trifluoromethyl-benzyl)-1H-benzimidazole-5-carboxamide] | 100%
Cn1c(Nc2ccncc2Cl)nc2cc(C(=O)Nc3ccc(Br)cc3)ccc21 [Example 520, N-(4-Bromophenyl)-2-(3-chloropyridin-4-ylamino)-1-methyl-1H-benzimidazole-5-carboxamide] | 97%
Cc1ccnc(Cl)c1Nc1nc2ccc(C(=O)Nc3cccc(Cl)c3)cc2[nH]1 [Example 521, 2-(2-Chloro-4-methylpyridin-3-ylamino)-N-(3-chlorophenyl)-1H-benzimidazole-5-carboxamide] | 95%
Cc1ccnc(Cl)c1Nc1nc2ccc(C(=O)NC3CCC(C)(C)CC3)cc2[nH]1 [Example 531, 2-(2-Chloro-4-methylpyridin-3-ylamino)-N-(4,4-dimethylcyclohexyl)-1H-benzimidazole-5-carboxamide] | 93%
Cn1c(Nc2c(Cl)cncc2Cl)nc2cc(C(=O)NC3CCCCC3)ccc21 [Example 547, N-Cyclohexyl-2-(3,5-dichloropyridin-4-ylamino)-1-methyl-1H-benzimidazole-5-carboxamide] | 96%
Cn1c(Nc2c(Cl)cncc2Cl)nc2cc(C(=O)NCc3ncccc3C(F)(F)F)ccc21 [Example 553, 2-(3,5-Dichloropyridin-4-ylamino)-1-methyl-N-((3-trifluoromethyl-pyridin-2-yl)methyl)-1H-benzimidazole-5-carboxamide] | 53%
O=C(NCc1ncccc1C(F)(F)F)c1ccc2[nH]c(Nc3c(Cl)cncc3Cl)nc2c1 [Example 565, 2-(3,5-Dichloropyridin-4-ylamino)-N-((3-trifluoromethyl-pyridin-2-yl)methyl)-1H-benzimidazole-5-carboxamide] | 84%
O=C(Nc1ccc(Br)cc1)c1ccc2[nH]c(Nc3ccncc3Cl)nc2c1 [Example 566, N-(4-Bromophenyl)-2-(3-chloropyridin-4-ylamino)-1H-benzimidazole-5-carboxamide] | 77%
Cc1cnccc1Nc1nc2cc(C(=O)Nc3ccc(Br)cc3)ccc2n1C [Example 567, N-(4-Bromophenyl)-1-methyl-2-(3-methylpyridin-4-ylamino)-1H-benzimidazole-5-carboxamide] | 80%
CCOc1cc2[nH]c(Nc3c(Cl)cncc3Cl)nc2cc1C(=O)Nc1cc(C(F)F)c(F)cn1 [Example 655, 2-(3,5-Dichloro-pyridin-4-yl-amino)-6-ethoxy-N-(5-fluoro-4-difluoromethyl-pyridin-2-yl)-1H-benzimidazole-5-carboxamide] | 100%
CN(C)c1cc(C(F)(F)F)cc(NC(=O)c2cc3nc(Nc4c(Cl)cncc4Cl)[nH]c3cc2OCC(F)(F)F)n1 [Example 656, 2-(3,5-Dichloro-pyridin-4-yl-amino)-6-(2,2,2-trifluoroethoxy)-N-(6-dimethylamino-4-trifluoromethyl-pyridin-2-yl)-1H-benzimidazole-5-carboxamide] | 96%
O=C(Nc1ccc(Br)cc1)c1cc2nc(Nc3c(Cl)cncc3Cl)[nH]c2cc1OC1CCOC1 (centres unmarked) [Example 659, 2-(3,5-Dichloro-pyridin-4-yl-amino)-6-(tetrahydrofuran-3-yl-oxy)-N-(4-bromo-phenyl)-1H-benzimidazole-5-carboxamide] | 98%
CCCOc1cc2c(cc1C(=O)Nc1ccc(Br)cc1)nc(Nc1c(Cl)cncc1Cl)n2C [Example 660, 2-(3,5-Dichloropyridin-4-ylamino)-N-(4-bromophenyl)-6-propoxy-1-methyl-1H-benzimidazole-5-carboxamide] | 99%

Second part, the compound after the results:

inhibition at 10 µM | SMILES
100% | Cn1c(Nc2c(Cl)cncc2Cl)nc2cc(C(=O)Nc3ccc(Br)cc3)c(OC3CCOC3)cc21 (centres unmarked) [Example 661, 2-(3,5-Dichloropyridin-4-ylamino)-N-(4-bromophenyl)-6-(tetrahydrofuran-3-yl-oxy)-1-methyl-1H-benzimidazole-5-carboxamide]
99% | CN1CCC(Oc2cc3c(cc2C(=O)Nc2ccc(Br)cc2)nc(Nc2c(Cl)cncc2Cl)n3C)C1 (centres unmarked) [Example 662, 2-(3,5-Dichloropyridin-4-ylamino)-N-(4-bromophenyl)-6-(N-methyl-pyrrolidin-3-yl-oxy)-1-methyl-1H-benzimidazole-5-carboxamide]
96% | Cn1c(Nc2c(Cl)cncc2Cl)nc2cc(C(=O)Nc3ccc(Br)cc3)c(OCCN3CCCC3)cc21 [Example 663, 2-(3,5-Dichloropyridin-4-ylamino)-N-(4-bromophenyl)-6-(2-(pyrrolidin-1-yl)-ethoxy)-1-methyl-1H-benzimidazole-5-carboxamide]
99% | Cn1c(Nc2c(Cl)cncc2Cl)nc2cc(C(=O)Nc3ccc(Br)cc3)c(OCCN3CCCC3=O)cc21 [Example 664, 2-(3,5-Dichloropyridin-4-ylamino)-N-(4-bromophenyl)-6-(2-(pyrrolidin-2-on-1-yl)-ethoxy)-1-methyl-1H-benzimidazole-5-carboxamide]
99% | Cn1c(Nc2c(Cl)cncc2Cl)nc2cc(C(=O)NCc3ccccc3C(F)(F)F)c(OC3CCOC3)cc21 (centres unmarked) [Example 665, 2-(3,5-Dichloropyridin-4-ylamino)-N-((2-trifluoromethyl-phen-1-yl)-methyl)-6-(tetrahydrofuran-3-yl-oxy)-1-methyl-1H-benzimidazole-5-carboxamide]
100% | COCCOc1cc2c(cc1C(=O)Nc1ccc(Br)cc1)nc(Nc1c(Cl)cncc1Cl)n2C [Example 666, 2-(3,5-Dichloropyridin-4-ylamino)-N-(4-bromophenyl)-6-(2-methoxy-ethoxy)-1-methyl-1H-benzimidazole-5-carboxamide]
99% | CCOc1cc2[nH]c(Nc3c(Cl)cncc3Cl)nc2cc1C(=O)NCc1ncccc1C(F)(F)F [Example 667, 2-(3,5-Dichloropyridin-4-ylamino)-N-((3-trifluoromethyl-pyridin-2-yl)-methyl)-6-ethoxy-1H-benzimidazole-5-carboxamide]
100% | CCOc1cc2c(cc1C(=O)NCc1ncccc1C(F)(F)F)nc(Nc1c(Cl)cncc1Cl)n2C [Example 668, 2-(3,5-Dichloropyridin-4-ylamino)-N-((3-trifluoromethyl-pyridin-2-yl)-methyl)-6-ethoxy-1-methyl-1H-benzimidazole-5-carboxamide]
100% | CCOc1cc2[nH]c(Nc3c(Cl)cncc3Cl)nc2cc1C(=O)NC1CCC(C)(C)CC1 [Example 669, 2-(3,5-Dichloropyridin-4-ylamino)-N-(4,4-dimethyl-cyclohexyl)-6-ethoxy-1H-benzimidazole-5-carboxamide]
